These results are taken from US8357717B2, “Spiro group-containing amide compounds having bradykinin 1 receptor (B1R) activity” (Gruenenthal GmbH, priority 2009, dated 2013).

Experiment [1] concerns the target T1, human B1R receptor (hB1R) (Homo sapiens, UniProt P46663).
T1 construct: expressed in transfected cells; host or cells: CHO K1 cells, stably transfected
T1 sequence (P46663 1-353): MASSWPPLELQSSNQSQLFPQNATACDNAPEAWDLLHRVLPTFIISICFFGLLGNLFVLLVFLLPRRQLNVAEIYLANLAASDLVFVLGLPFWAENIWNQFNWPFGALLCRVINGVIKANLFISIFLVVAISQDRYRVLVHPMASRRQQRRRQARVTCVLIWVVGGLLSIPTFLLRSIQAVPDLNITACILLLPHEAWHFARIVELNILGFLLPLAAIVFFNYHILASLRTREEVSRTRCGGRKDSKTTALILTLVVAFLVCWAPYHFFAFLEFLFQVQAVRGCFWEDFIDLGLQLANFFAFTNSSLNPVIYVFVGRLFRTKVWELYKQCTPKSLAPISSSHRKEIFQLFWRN
The experiment is described as follows: FLIPR Ca2+ functional study on bradykinin receptor 1, hB1R cells (CHO K1). It is filed as cell-based. Particulars: CHO-K1, 10 μM test substance; CHO K1 cells with human B1R; agonist Lys-Des-Arg9-bradykinin at EC80; read-out: B1R antagonism, human [10 μM] % inhibition. On the procedure:
The agonistic or antagonistic activity of substances can be quantified on the bradykinin receptor 1 (B1R) of the species human and rat using ectopically expressing cell lines (CHO K1 cells) and with the aid of a Ca^2+-sensitive dye (Fluo-4) using a fluorescent imaging plate reader (FLIPR). The indication in % activation is based on the Ca^2+ signal after addition of Lys-Des-Arg^9-bradykinin (0.5 nM) or Des-Arg^9-bradykinin (100 nM). Antagonists lead to suppression of the Ca^2+ influx after the addition of the agonist. % Inhibition compared with the maximum achievable inhibition is indicated.
The agonistic or antagonistic activity of substances can be determined on the bradykinin receptor 1 (B1R) of the species human and rat using the following assay. According to this assay, the Ca^2+ influx through the channel is quantified with the aid of a Ca^2+-sensitive dye (Fluo-4 type, Molecular Probes Europe BV, Leiden, Netherlands) using a Fluorescent Imaging Plate Reader (FLIPR, Molecular Devices, Sunnyvale, USA).
Chinese hamster ovary cells (CHO K1 cells) which have been stably transfected with the human B1R gene (hB1R cells) or with the B1R gene of the rat (rB1R cells) are used. For functional studies, the cells are plated out on black 96-well plates having a clear base (BD Biosciences, Heidelberg, Germany or Greiner, Frickenhausen, Germany) in a density of 20,000-35,000 cells/well. The cells are left overnight at 37° C. and with 5% CO2 in culture medium (hB1R cells: Nutrient Mixture Ham's F12, Gibco Invitrogen GmbH, Karlsruhe, Germany or DMEM, Sigma-Aldrich, Taufkirchen, Germany; rB1R cells: D-MEM/F12, Gibco Invitrogen GmbH, Karlsruhe, Germany), with 10 vol. % FBS (fetal bovine serum, Gibco Invitrogen GmbH, Karlsruhe, Germany or PAN Biotech GmbH, Aidenbach, Germany). On the following day, the cells are loaded for 60 minutes at 37° C. with 2.13 μM Fluo-4 (Molecular Probes Europe BV, Leiden, Netherlands) in HBSS buffer (Hank's buffered saline solution, Gibco Invitrogen GmbH, Karlsruhe, Germany) […] (Sigma-Aldrich, Taufkirchen, Germany) and 10 mM HEPES (Sigma-Aldrich, Taufkirchen, Germany). The plates are then washed twice with HBSS buffer, and HBSS buffer additionally containing 0.1% BSA (bovine serum albumin; Sigma-Aldrich, Taufkirchen, Germany), 5.6 mM glucose and 0.05% gelatin (Merck KGaA, Darmstadt, Germany) is added to the plates. After incubation for a further 20 minutes at room temperature, the plates are inserted into the FLIPR for Ca^2+ measurement. Alternatively, washing is carried out with buffer A (15 mM HEPES, 80 mM NaCl, 5 mM KCl, 1.2 mM CaCl2, 0.7 mM MgSO4, 2 g/l glucose, 2.5 mM probenecid) followed by loading with buffer A with added 2.5 μM Fluo-4 and 0.025% Pluronic F127 (Sigma-Aldrich, Taufkirchen, Germany). The cells are then washed twice with buffer A and incubated for 30 minutes at room temperature with buffer A additionally containing 0.05% BSA and 0.05% gelatin and are then inserted into the FLIPR for Ca^2+ measurement. The Ca^2+-dependent fluorescence is measured before and after the addition of substances (λex=488 nm, λem=540 nm). Quantification is carried out by measuring the highest fluorescence intensity (FC, fluorescence counts) over time.
The FLIPR protocol consists of two substance additions. Test substances (10 μM) are first pipetted onto the cells and the Ca^2+ influx is compared with the control (hB1R: Lys-Des-Arg^9-bradykinin >=50 nM; rB1R: Des-Arg^9-bradykinin 10 μM). This gives the activation in %, based on the Ca^2+ signal after addition of Lys-Des-Arg^9-bradykinin (>=50 nM) or Des-Arg^9-bradykinin (10 μM). After 10-20 minutes' incubation, Lys-Des-Arg^9-bradykinin (hB1R) or Des-Arg^9-bradykinin (rB1R) is applied in the concentration of the EC80, and the influx of Ca^2+ is likewise determined. Antagonists lead to suppression of the Ca^2+ influx. The % inhibition compared with the maximum achievable inhibition is calculated. […]

Experiment [2] has as its target T2, B1R receptor of the rat (rB1R) (Rattus norvegicus, UniProt P97583).
T2 construct: expressed in transfected cells; host or cells: CHO K1 cells, stably transfected
T2 sequence (P97583 1-337): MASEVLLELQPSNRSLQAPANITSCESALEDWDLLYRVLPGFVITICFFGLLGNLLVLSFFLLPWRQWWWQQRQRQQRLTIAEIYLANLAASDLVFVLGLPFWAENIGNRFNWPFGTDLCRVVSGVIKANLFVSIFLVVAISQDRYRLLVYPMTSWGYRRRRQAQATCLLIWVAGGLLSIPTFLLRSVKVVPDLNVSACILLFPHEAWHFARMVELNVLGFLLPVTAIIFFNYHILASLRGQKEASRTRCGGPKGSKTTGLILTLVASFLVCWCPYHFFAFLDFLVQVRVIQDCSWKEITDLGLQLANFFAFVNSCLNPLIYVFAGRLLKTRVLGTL
The experiment is described as follows: FLIPR Ca2+ functional study on bradykinin receptor 1, rB1R cells (CHO K1). It is filed as cell-based. The note with it: 10 μM test substance; CHO K1 cells with rat B1R; agonist Des-Arg9-bradykinin at EC80; read-out: B1R antagonism, rat [10 μM] % inhibition. The procedure, abridged:
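Stably transfected CHO K1 cells loaded with Fluo-4; FLIPR Ca2+ fluorescence (ex 488/em 540 nm, peak counts). Compounds (10 μM, or concentration series for IC50) preincubated 10–20 min, then EC80 agonist added (human: Lys-Des-Arg9-bradykinin; rat: Des-Arg9-bradykinin); % inhibition versus maximum achievable, n=2–3, N≥2.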

As a reminder, the inhibition is the drop in the measured response relative to a control, in per cent. With `COc1cc(C)c(S(=O)(=O)N2CCCc3ccc(CC(=O)N4CCC5(CC4)CCN(c4ccncc4)CC5)nc32)c(C)c1` [Compound G-70, 2-[8-[(4-Methoxy-2,6-dimethyl-phenyl)sulfonyl]-5,6,7,8-tetrahydro-[1,8]naphthyridin-2-yl]-1-(9-pyridin-4-yl-3,9-diazaspiro[5.5]undecan-3-yl)-ethanone], the results for the inhibition at 10 µM in experiment [1] and in experiment [2] were 88% and 101%, respectively.

On to `O=C(c1ccc2c(c1)CN(C(=O)C(c1ccccc1)c1ccccc1)CC2)N1CCC2(CC1)CCN(c1ccncc1)CC2` [Compound G-49, 2,2-Diphenyl-1-(7-(9-(pyridin-4-yl)-3,9-diazaspiro[5.5]undecane-3-carbonyl)-3,4-dihydroisoquinolin-2(1H)-yl)ethanone], for which the inhibition at 10 µM in experiment [1] stood at 99%; in experiment [2] it was 106%.

Turning to `CC(C)(C)c1ccc(C(=O)N2CCc3ccc(C(=O)N4CCC5(CC4)CCN(c4ccncc4)CC5)cc3C2)s1` [Compound G-63, (5-tert-Butylthiophen-2-yl)(7-(9-(pyridin-4-yl)-3,9-diazaspiro[5.5]undecane-3-carbonyl)-3,4-dihydroisoquinolin-2(1H)-yl)methanone], the inhibition at 10 µM in experiment [1] came out at 83%; in experiment [2] it was 80%.

Regarding `O=C(Nc1ccc(Cl)c(Cl)c1)N1CCc2ccc(C(=O)N3CCC4(CC3)CCN(c3ccncc3)CC4)cc2C1` [Compound G-55, N-(3,4-dichlorophenyl)-7-(9-(pyridin-4-yl)-3,9-diazaspiro[5.5]undecane-3-carbonyl)-3,4-dihydroisoquinoline-2(1H)-carboxamide], the inhibition at 10 µM came out at 92% in experiment [1] and 94% in experiment [2].

`COc1cc(C)c(S(=O)(=O)N2CCc3onc(C(=O)N4CCC5(CC4)CCN(c4ccncc4)CC5)c3C2)c(C)c1` [Compound G-26, (5-(4-Methoxy-2,6-dimethylphenylsulfonyl)-4,5,6,7-tetrahydroisoxazolo[4,5-c]pyridin-3-yl)(9-(pyridin-4-yl)-3,9-diazaspiro[5.5]undecan-3-yl)methanone]: the inhibition at 10 µM in experiment [1] was found to be 99%; in experiment [2], 95%.

For the molecule `O=C(c1ccc2c(c1)N(C(=O)c1ccccc1Cl)CCC2)N1CCC2(CC1)CCN(c1ccncc1)CC2` [Compound G-21, (1-(2-Chlorobenzoyl)-1,2,3,4-tetrahydroquinolin-7-yl)(9-(pyridin-4-yl)-3,9-diazaspiro[5.5]undecan-3-yl)methanone], the inhibition at 10 µM came out at 95% in experiment [1] and 101% in experiment [2].

Regarding `COc1cc(C)c(S(=O)(=O)N2CCCc3ccc(CC(=O)N4CCC5(CCN(c6ccncc6)C5)C4)cc32)c(C)c1` (centres unmarked) [Compound G-12, 2-(1-(4-Methoxy-2,6-dimethylphenylsulfonyl)-1,2,3,4-tetrahydroquinolin-7-yl)-1-(7-(pyridin-4-yl)-2,7-diazaspiro[4.4]nonan-2-yl)ethanone], the inhibition at 10 µM in experiment [1] was 100%; in experiment [2] it was 102%.

As to `Cc1ccc(S(=O)(=O)N2CCc3ccc(C(=O)N4CCC5(CC4)CCN(c4ccncc4)CC5)cc3C2)c2ccccc12` [Compound G-47, (2-(4-Methylnaphthalin-1-ylsulfonyl)-1,2,3,4-tetrahydroisoquinolin-7-yl)(9-(pyridin-4-yl)-3,9-diazaspiro[5.5]undecan-3-yl)methanone], the inhibition at 10 µM in experiment [1] turned out to be 72%; in experiment [2], 80%.

As for `COc1cc(C)c(S(=O)(=O)N2CCCc3ccc(C(=O)N4CCC5(CC4)CCN(c4ccncc4)CC5)cc32)c(C)c1` [Compound G-24, (1-(4-Methoxy-2,6-dimethylphenylsulfonyl)-1,2,3,4-tetrahydroquinolin-7-yl)(9-(pyridin-4-yl)-3,9-diazaspiro[5.5]undecan-3-yl)methanone], the inhibition at 10 µM in experiment [1] amounted to 99%; in experiment [2], 100%.

For the molecule `O=C(Cc1ccc2c(c1)N(S(=O)(=O)c1cccc3ccccc13)CCC2)N1CCC2(CC1)CCN(c1ccncc1)CC2` [Compound G-17, 2-(1-(Naphthalin-1-ylsulfonyl)-1,2,3,4-tetrahydroquinolin-7-yl)-1-(9-(pyridin-4-yl)-3,9-diazaspiro[5.5]undecan-3-yl)ethanone], the inhibition at 10 µM was 97% in experiment [1] and 89% in experiment [2].

For the molecule `O=C(Cc1ccc2c(c1)N(S(=O)(=O)c1ccccc1C(F)(F)F)CCC2)N1CCC2(CC1)CCN(c1ccncc1)CC2` [Compound G-16, 1-(9-(Pyridin-4-yl)-3,9-diazaspiro[5.5]undecan-3-yl)-2-(1-(2-(trifluoromethyl)phenylsulfonyl)-1,2,3,4-tetrahydroquinolin-7-yl)ethanone], the inhibition at 10 µM worked out at 98% in experiment [1] and 100% in experiment [2].

With `O=C(c1cn2c(n1)CN(C(=O)c1ccc(Cl)s1)CC2)N1CCC2(CC1)CCN(c1ccncc1)CC2` [Compound G-71, [7-(5-Chloro-thiophene-2-carbonyl)-5,6,7,8-tetrahydro-imidazo[1,2-a]pyrazin-2-yl]-(9-pyridin-4-yl-3,9-diazaspiro[5.5]undecan-3-yl)-methanone], the inhibition at 10 µM in experiment [1] was determined as 91%; in experiment [2], 80%.

On to `O=C(Cc1ccc2c(c1)N(C(=O)c1ccccc1Cl)CCC2)N1CCC2(CC1)CCN(c1ccncc1)CC2` [Compound G-64, 2-[1-(2-Chloro-benzoyl)-1,2,3,4-tetrahydro-quinolin-7-yl]-1-(9-pyridin-4-yl-3,9-diazaspiro[5.5]undecan-3-yl)-ethanone], for which the inhibition at 10 µM stood at 59% in experiment [1] and 96% in experiment [2].
